Measured values reported in patent publication US20040186104A1, “Novel pyridinone and related heterocyclic derivatives” (priority 2001, published 2004).

Assays:
[1] = target: T1, human kappa opioid receptor (Homo sapiens, UniProt P41145); assay: SPA binding assay for kappa-opioid receptor transfected cell membrane in 96-well format; details: HEK293S KOR cell membranes, radioligand 125I-(D-Pro10)-Dynorphin A (1-11), control inhibitor
T1 construct: expressed in transfected cells; host or cells: HEK293S KOR cells (membrane preparations)
Description: (§1) Compounds of the invention, prepared using the general methods described above, may be tested for their ability to bind to the human kappa opioid receptor using standard procedures well known to those skilled in the art.
SPA Binding Assay for Kappa-Opioid Receptor Transfected Cell Membrane in 96-Well Format
Principle: Membranes containing the kappa opioid receptor are coupled to SPA beads, the ability of tested compounds to dislocate a radio ligand the protein agonist Dynorphin. (^125I-(D-Pro^10)-Dynorphin A (1-11)) are determined. Only radioaktivity in close proximity to the beads, that is bound to membranes attached to beads, will be measured.
Procedure: The total and non-specific binding are determined in absence and presence of 0.5 μM of Dynorphin, radioligand is added containing 15 000-20 000 CPM per well.
The membrane and SPA beads precouples over night (18-22 hours) in assay buffer at room temperature on a shaking platform, with rotary movement. The mixture of membrane and beads are pipetted together with the assay-buffer, agents and the radioligand into a 96-well microtiterplate.
The plate is incubated for 1 hours at room temperature, and counted in a WALLAC TRILUX MicroBeta.
Percentage inhibition is calculated for each well from the two standards, 0% and 100% inhibition.
The binding buffer, 50 mM Tris, 3 mM MgCl2, stored at +4° C. […]

[2] = target: T1, human kappa opioid receptor; assay: Binding assay for opioid receptor transfected cell membrane in 96-well format (filtration), kappa opioid receptor; details: HEK293S KOR cell membranes, radioligand 125I-(D-Pro10)-Dynorphin A (1-11), control inhibitor
Description: as §1
Binding Assay for Opioid Receptor Transfected Cell Membrane in 96-Well Format
Principle: The procedures describe how to perform and interpret receptor binding experiments designed to determine the affinities of new compounds for μ, δ and κ receptors. The total and nonspecific binding are determined in the absence and presence of selective opioid receptor radiolabeled ligand.
Procedure for Kappa Opioid Receptor:
The total and non-specific binding are determined in absence and presence of 1 μM of Asimadoline and added with the multichannel pipett in respectively well of the 96 well plate (see table 1).
The radioligand 125I-(D-pro)-Dynorphin A (1-1 1) is added containing 30 000-50 000 CPM per well.
Membranes are thawed at room temperature and diluted in assay buffer to the appropriate amount of protein, homogenized 5-10 times in glas/glas, and added to the 96 well plate.
Vortex the plate 1 minute, incubate at room temperature for 60-75 minutes, vortex 1 minute and the reaction was terminated by rapid filtration (Micro96 Harvester, Skatron Instruments, Norway) to separate bound from free ligand. […]

T1 sequence (P41145 whole entry): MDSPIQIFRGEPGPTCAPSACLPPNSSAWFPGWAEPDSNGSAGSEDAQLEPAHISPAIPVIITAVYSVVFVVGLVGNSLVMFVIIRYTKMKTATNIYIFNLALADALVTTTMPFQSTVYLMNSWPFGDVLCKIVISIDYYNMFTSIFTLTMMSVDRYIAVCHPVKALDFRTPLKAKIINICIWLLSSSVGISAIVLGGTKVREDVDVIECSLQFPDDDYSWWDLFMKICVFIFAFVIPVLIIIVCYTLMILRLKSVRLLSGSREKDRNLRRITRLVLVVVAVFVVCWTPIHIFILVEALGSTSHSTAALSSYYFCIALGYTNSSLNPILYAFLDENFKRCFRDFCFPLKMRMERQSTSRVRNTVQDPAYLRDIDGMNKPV

SMILES: CN(C(=O)C(c1ccccc1)c1ccccc1)[C@H](CN1CC[C@H](O)C1)c1ccccc1 [Asimadoline]
- IC50 [1]: ~4 nM
- IC50 [2]: 4 to 10 nM
